Results taken from patent publication US8501446B2 (Vertex Pharmaceuticals Incorporated, priority 2004, dated 2013).

How the values were obtained:
Type in all cases: biochemical
[1] = target: T1, ROCK I (AA 6-553) (Homo sapiens, UniProt Q13464); experiment: ROCK inhibition assay, standard coupled enzyme system ("Enzyme"); settings: enzyme-linked assay
T1 construct: ROCK I (AA 6-553)
Outline: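 ROCK I (AA 6-553) at 45 nM and 30 °C with 45 μM ATP and 200 μM peptide, in 100 mM HEPES pH 7.5, 10 mM MgCl2, 25 mM NaCl, 2 mM DTT, 1.5% DMSO. ADP output read by a PK/LDH coupled system: 2.5 mM PEP, 350 μM NADH, 30 μg/ml PK, 10 μg/ml LDH.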

[2] = target: T2, full length Aurora-A (AA 1-403) (Homo sapiens, UniProt O14965); experiment: Aurora-A inhibition assay, standard coupled enzyme system; settings: average Ki if more than one value determined
T2 construct: full length Aurora-A (AA 1-403)
T2 sequence (O14965 1-403): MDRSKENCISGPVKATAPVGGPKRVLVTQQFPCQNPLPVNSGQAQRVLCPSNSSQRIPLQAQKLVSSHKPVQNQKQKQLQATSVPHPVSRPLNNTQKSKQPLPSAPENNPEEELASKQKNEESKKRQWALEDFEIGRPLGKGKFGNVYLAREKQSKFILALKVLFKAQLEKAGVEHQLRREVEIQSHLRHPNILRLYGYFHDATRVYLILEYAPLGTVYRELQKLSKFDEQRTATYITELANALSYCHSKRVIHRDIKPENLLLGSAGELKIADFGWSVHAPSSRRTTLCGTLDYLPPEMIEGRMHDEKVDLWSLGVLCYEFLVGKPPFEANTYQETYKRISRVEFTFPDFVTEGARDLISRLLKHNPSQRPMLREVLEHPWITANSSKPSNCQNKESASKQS

[3] = target: T3, Aurora-C (Homo sapiens, UniProt Q9UQB9); experiment: Aurora-C inhibition assay, coupled enzyme system as for Aurora-A; settings: average Ki if more than one value determined
T3 sequence (Q9UQB9 1-309): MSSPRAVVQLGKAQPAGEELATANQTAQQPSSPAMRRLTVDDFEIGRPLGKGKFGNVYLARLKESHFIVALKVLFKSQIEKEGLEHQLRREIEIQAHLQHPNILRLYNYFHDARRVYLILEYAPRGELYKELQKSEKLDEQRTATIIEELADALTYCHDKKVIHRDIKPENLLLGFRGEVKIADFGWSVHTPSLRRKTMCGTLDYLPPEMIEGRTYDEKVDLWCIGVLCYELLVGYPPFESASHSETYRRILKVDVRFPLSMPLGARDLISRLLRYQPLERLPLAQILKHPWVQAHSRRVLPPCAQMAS
Protocol: Compounds were screened for their ability to inhibit full length Aurora-A (AA 1-403) activity using a standard coupled enzyme system (Fox et al., Protein Sci. 7, pp. 2249 (1998)). Reactions were carried out in a solution containing 100 mM HEPES (pH 7.5), 10 mM MgCl2, 25 mM NaCl, 300 μM NADH, 1 mM DTT and 3% DMSO. Final substrate concentrations in the assay were 200 μM ATP (Sigma Chemicals, St Louis, Mo.) and 800 μM peptide (LRRASLG, American Peptide, Sunnyvale, Calif.). Reactions were carried out at 30° C. and 35 nM Aurora-A. Final concentrations of the components of the coupled enzyme system were 2.5 mM phosphoenolpyruvate, 200 μM NADH, 60 μg/ml pyruvate kinase and 20 μg/ml lactate dehydrogenase.
An assay stock buffer solution was prepared containing all of the reagents listed above with the exception of ATP and the test compound of interest. The assay stock buffer solution (60 μl) was incubated in a 96 well plate with 2 μl of the test compound of interest at final concentrations spanning 0.002 μM to 30 μM at 30° C. for 10 min. Typically, a 12 point titration was conducted by preparing serial dilutions (from 1 mM compound stocks) with DMSO of the test compounds in daughter plates. The reaction was initiated by the addition of 5 μl of ATP (final concentration 200 μM). Rates of reaction were obtained using a Molecular Devices Spectramax plate reader (Sunnyvale, Calif.) over 10 min at 30° C. The Ki values were determined from the rate data as a function of inhibitor concentration using computerized nonlinear regression (Prism 3.0, Graphpad Software, San Diego, Calif.). Aurora-C activity was screened in a similar manner using Aurora-C protein. Aurora-B activity was screened using a radioactive assay, such as described in Examples 1 and 2, but using Aurora-B protein.

[4] = target: Aurora-B (Homo sapiens, UniProt Q96GD4); experiment: Aurora-B inhibition assay, radioactive assay; settings: average Ki if more than one value determined
Sequence of Aurora-B (Q96GD4 whole entry): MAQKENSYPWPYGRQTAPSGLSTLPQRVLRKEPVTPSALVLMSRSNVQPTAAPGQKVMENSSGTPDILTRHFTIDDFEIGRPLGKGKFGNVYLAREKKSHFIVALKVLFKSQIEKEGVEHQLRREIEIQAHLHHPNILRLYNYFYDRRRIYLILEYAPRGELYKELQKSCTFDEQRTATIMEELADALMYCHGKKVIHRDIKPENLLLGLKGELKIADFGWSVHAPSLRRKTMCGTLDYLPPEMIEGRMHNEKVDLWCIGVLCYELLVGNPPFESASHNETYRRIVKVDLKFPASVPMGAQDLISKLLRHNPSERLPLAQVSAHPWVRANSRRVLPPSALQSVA
Outline: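 Aurora-B protein substituted into the standard radioactive kinase format: reaction quenched with TCA, product captured on glass fiber filters and 33P counted. Ki(app) derived by fitting background-corrected counts against inhibitor concentration.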

T1 sequence (Q13464 6-553, species assumed): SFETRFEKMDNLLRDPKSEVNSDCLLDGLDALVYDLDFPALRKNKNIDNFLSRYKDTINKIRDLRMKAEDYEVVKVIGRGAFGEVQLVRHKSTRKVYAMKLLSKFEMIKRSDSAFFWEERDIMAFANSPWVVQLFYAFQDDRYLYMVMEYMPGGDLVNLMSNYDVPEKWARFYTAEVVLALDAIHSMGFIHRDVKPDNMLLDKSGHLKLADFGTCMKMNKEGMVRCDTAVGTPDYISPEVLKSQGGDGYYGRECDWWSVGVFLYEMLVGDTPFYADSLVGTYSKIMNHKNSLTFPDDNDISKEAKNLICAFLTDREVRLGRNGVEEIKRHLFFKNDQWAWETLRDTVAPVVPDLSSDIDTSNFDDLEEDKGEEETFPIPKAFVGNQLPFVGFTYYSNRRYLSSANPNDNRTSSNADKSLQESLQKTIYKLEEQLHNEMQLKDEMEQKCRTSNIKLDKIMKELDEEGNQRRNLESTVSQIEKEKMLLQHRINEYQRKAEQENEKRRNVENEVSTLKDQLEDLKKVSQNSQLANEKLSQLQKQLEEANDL

Row | SMILES | Ki [1] [nM] | Ki [2] [nM] | Ki [3] [nM] | Ki [4] [nM]
1 | Fc1cnc(-c2c[nH]c3ncc(Cl)cc23)nc1NC1CCNCC1 [Compound 345] | < 500 | < 500 | 500 to 5000 | 500 to 5000
2 | C[C@H](Nc1nc(-c2c[nH]c3ncc(Cl)cc23)ncc1C#N)C(=O)NCC(F)(F)F [Compound 420] | 500 to 5000 | < 500 | < 500 | < 500
3 | C#Cc1cnc2[nH]cc(-c3ncc(F)c(N[C@@H](C)c4ccc(F)cc4)n3)c2c1 [Compound 374] | 500 to 5000 | < 500 | < 500 | < 500
4 | CNC(=O)[C@H](C)Nc1nc(-c2c[nH]c3ncc(Cl)cc23)ncc1F [Compound 340] | 500 to 5000 | < 500 | < 500 | < 500
5 | Fc1cnc(-c2c[nH]c3ncc(Cl)cc23)nc1NC1CCCCC1 [Compound 356] | 500 to 5000 | < 500 | < 500 | < 500
6 | CCS(=O)(=O)NCCNC(=O)[C@H](C)Nc1nc(-c2c[nH]c3ncc(Cl)cc23)ncc1F [Compound 445] | – | < 500 | < 500 | 500 to 5000
7 | Fc1cnc(-c2c[nH]c3ncc(Cl)cc23)nc1NCC1CCNCC1 [Compound 327] | < 500 | < 500 | < 500 | < 500
8 | CNC(=O)CNc1nc(-c2c[nH]c3ncc(Cl)cc23)ncc1C(C)C [Compound 430] | 500 to 5000 | < 500 | 500 to 5000 | 500 to 5000
9 | Fc1cnc(-c2c[nH]c3ncc(Cl)cc23)nc1NCc1cccc(Cl)c1 [Compound 312] | 500 to 5000 | < 500 | < 500 | < 500
10 | CNC(=O)c1cc(N[C@@H](C)c2ccc(F)cc2)nc(-c2c[nH]c3ncc(Cl)cc23)n1 [Compound 359] | 500 to 5000 | < 500 | < 500 | < 500
11 | Clc1cnc2[nH]cc(-c3cccc(NC4CCCCC4)n3)c2c1 [Compound 290] | 500 to 5000 | < 500 | 500 to 5000 | 500 to 5000
12 | CC(C)c1cnc(-c2c[nH]c3ncc(Cl)cc23)nc1N[C@@H](C)C(=O)NCC(F)(F)F [Compound 429] | 500 to 5000 | < 500 | 500 to 5000 | 500 to 5000
13 | C[C@H](Nc1nc(-c2c[nH]c3ncc(Cl)cc23)ncc1F)c1cccc(O)c1 [Compound 306] | 500 to 5000 | < 500 | < 500 | < 500
14 | Fc1cnc(-c2c[nH]c3ncc(Cl)cc23)nc1NC1CCCNC1 (stereo not shown) [Compound 347] | < 500 | < 500 | 500 to 5000 | 500 to 5000
